One molecule from US10952390B2, “Catnip cultivar ‘CR3’” (Rutgers, The State University of New Jersey, priority 2016, dated 2021) can be followed below.

Some results are limits rather than exact numbers.

What all share (assay type): in vivo
The test system of assay [1] is Anopholes gambiae. The assay is described as follows: one-choice mosquito landing rate inhibition assay. As to the method: (§1) The clonal population serving as source material for the essential oil was the ‘CR3’ cultivar. The hydro-distilled essential oil from this population was used as the source for the crude essential oil treatment and was partitioned for subsequent fractionation and nepetalactone purification. The clones were transplanted to the field. Immediately before the plants were in full flower, they were harvested and dried at 37° C. with an onsite Powell walk-in forced air heat dryer kept under low heat conditions. Once the plants had lost all moisture, under the temperature and pressure conditions, the leaves and flowers were separated from the stems for hydro-distillation. Essential oils were extracted by hydro-distilling 60 g of dried N. cataria leaves and flowers. They were distilled in a 2 L round bottom flask for 3 hours in 1 L of water and the essential oil was collected in a Clevenger-type trap. The essential oils were then prepared and analyzed by GC/MS. The CR3 essential oil contained about 29% Z, E-nepetalactone and about 59% E, Z-nepetalactone (% of the total essential oil).
(§2) Repellency was determined by a one-choice landing assay that uses the amount of mosquito landings to calculate the overall effectiveness of the candidate repellent. […] Time lapse photography recorded one image every five seconds. […]

Assay [2] relates to Aedes aegypti. The assay can be described thus: one-choice mosquito landing rate inhibition assay. The protocol: as §1, with “oil). […]” for “oil).”
as §2

The subject of assay [3] is Dermacentor variabilis. The assay can be described thus: one-choice tick filter paper repellency assay (petri dish arena). Particulars: D. variabilis, 15 minutes, three replicates. As to the method:
(§3) An arena was constructed out of petri dishes to establish a dose response curve of a repellent ('CR3′ essential oil or DEET) filter paper by monitoring the total amount of tick positions over 15 minutes (1 image every 15 sec) and calculating percent repellency. ‘CR3’ oils were extracted with acetone as described in Example 3. In a one-choice assay, the repellent was applied to half of the filter paper and placed into the petri dish where the ticks are placed, the petri dish cover applied, and the number of ticks counted applied to the repellent zone. In the two-choice repellency test (see FIG. 6), DEET and a repellent (‘CR3’ essential oil) were applied to different sides of the filter paper and the ticks are counted in reference to the test repellent, not DEET. Total Tick positions=(# ticks in petri dish)×(60 images) Percent repellency=[(# of ticks in the repellent zone)/(Total Tick positions)]*100 Three replicates were performed for each treatment. Complete repellency was defined as repelling greater than 95% of the ticks.

Assay [4] has as its system Ixodes scapularis. The description is as above. Particulars: I. scapularis, 15 minutes, three replicates. The protocol:
as §3

[5] abbreviates: 0.01% of the treatment applied to the filter paper.

As to `CCN(CC)C(=O)c1cccc(C)c1` [DEET], in assay [1] (setting [5]), the “reduction of A. gambiae landing” value was “about 35%”. Besides, the “decrease of mosquito landings (repellency)” value in assay [1] (A. gambiae, treatment at 1% on filter paper) was above 95%; in assay [2] (A. aegypti, treatment at 1% on filter paper), above 95%. Besides, in assay [2] (setting [5]), the “reduction of A. aegypti landing” value was “about 32%”. Further, the percent repellency in assay [3] (applied at 0.1%) was found to be 86.06±10.2; in assay [3] (applied at 1%), 99.31±1.00; in assay [4] (applied at 0.1%) it was 59.16±8.94; in assay [4] (applied at 1%) it was 99.79±0.36.
